# From patent publication US10280160B2, “Phthalazinone compounds and methods for the treatment of cystic fibrosis” (FLATLEY DISCOVERY LAB, LLC, priority 2013, dated 2019)
# Target: human F508del CFTR (Homo sapiens (Human), UniProt P13569, DEL508-508)
# Assay: CFTR-YFP High Throughput Assay (YFP halide flux, FRT cells)
# Format: cell-based
# Conditions: EMax normalized to the positive control; FRT cells expressing human F508del CFTR and YFP; read-out: % Efficacy
# Experimental: Assays for Detecting and Measuring the Effect of Compounds on F508del-CFTR Channels CFTR-YFP Assay-CFTR Corrector Protocol:
# This protocol is designed to selectively screen small molecule compounds for F508del CFTR corrector activities in the YFP (yellow fluorescent protein) flux assay. In this protocol, the cells are incubated with testing compounds for 24 hours, washed with PBS, stimulated with forskolin and a standard potentiator, and fluorescence in each plate well is measured kinetically read on a 384-well plate reader, such as the Hamamatsu FDSS-6000.
# YFP fluorescence intensity values are acquired at high speed before and after iodide buffer is injected to the assay cells. Iodide enters the cells via active CFTR channels in the plasma membrane, and quenches the YFP fluorescence. The rate of fluorescence quenching is proportionate to the total CFTR activity in the cell membrane. F508del CFTR correctors increase the number of CFTR molecules in the testing cell plasma membrane, and thereby accelerate YFP quenching.
# This method was initially developed for bench top plate readers (Galietta, J, Jayaraman, S and Verkman, A S. Cell-based assay for high-throughput quantitative screening of CFTR chloride transport agonists. Am. J. Physiol. Cell Physiol. (2001), 281: C173), and was adapted to the HTS format (Sui J, Cotard S, Andersen J, Zhu P, Staunton J, Lee M, Lin S. Optimization of a Yellow fluorescent protein-based iodide influx high-throughput screening assay for cystic fibrosis transmembrane conductance regulator (CFTR) modulators. Assay Drug Dev Technol. (2010), 8: 656-668).
# Fisher Rat Thyroid (FRT) cells stably expressing both human F508del CFTR and a halide-sensitive yellow fluorescent protein (YFP-H148Q/I152L 25,22) (Galietta et al. Am. J. Physiol Cell Physiol 281(5), C1734, 2001) were cultured on plastic surface in Coon's modified Ham's F12 medium supplemented with FBS 10%, L-glutamine 2 mM, penicillin 100 U/ml, and streptomycin 100 μg/ml. G418 (0.75-1.0 mg/ml) and zeocin (3.2 ug/ml) were used for selection of FRT cells expressing F508del CFTR and YFP. For primary screening, FRT cells were plated into 384-well black wall, transparent bottom microtiter plates (Costar; Corning Inc.) at a cell density of 20,000-40,000 per well. Test compound was applied to the cells at varying concentrations ranging from 2 nM-40 μM in either a 2-fold or 3-fold dilution series. Cells were incubated in a cell culture incubator at 37° C. with 5% CO2 for 24-26 h. Assay plates were washed with DPBS media (Thermo, cat # SH30028.02) to remove unbound cells and compound. Stimulation media (25 μL) containing 20 μM Forskolin & 30 μM P3 [6-(Ethyl-phenyl-sulfonyl)-4-oxo-1,4-dihydro-quinoline-3-carboxylic acid 2-methoxy-benzylamide] in Hams F-12 coon's modified media was added to the plate wells and incubated at room temperature for 60-120 min. 25 μL of HEPES-PBS-I buffer (10 mM HEPES, 1 mM MgCl2, 3 mM KCl, 1 mM CaCl2, 150 mM NaI) was then added and fluorescence quench curves (Excitation 500 nm/Emission 540 nm; exposure 136 ms) were immediately recorded on an FDSS-6000 plate reader (Hamamatsu). Quench rates were derived from least squares fitting of the data as described by Sui et al (2010).
# CFTR-YFP Assay-CFTR Potentiator Protocol:
# This protocol is designed to selectively screen small molecule compounds for F508del CFTR potentiator activities in the YFP (yellow fluorescent protein) flux assay. Such compounds act acutely to stimulate CFTR already expressed on the membrane surface. In this protocol, the cells are incubated at 27° C. for 24 hours to homogeneously boost F508del CFTR expression in the cell membrane (low temperature correction), washed with PBS, treated with test compound, and CFTR activity is stimulated with forskolin for 1-2 hr. Measurement of ion flux is initiated by addition of iodide-containing buffer, and YFP quenching is kinetically recorded using a 384-well plate reader, such as the Hamamatsu FDSS-6000. […]
# Sequence of human F508del CFTR (P13569 other isoform, or with tags, fused parts or gaps del F508-F508): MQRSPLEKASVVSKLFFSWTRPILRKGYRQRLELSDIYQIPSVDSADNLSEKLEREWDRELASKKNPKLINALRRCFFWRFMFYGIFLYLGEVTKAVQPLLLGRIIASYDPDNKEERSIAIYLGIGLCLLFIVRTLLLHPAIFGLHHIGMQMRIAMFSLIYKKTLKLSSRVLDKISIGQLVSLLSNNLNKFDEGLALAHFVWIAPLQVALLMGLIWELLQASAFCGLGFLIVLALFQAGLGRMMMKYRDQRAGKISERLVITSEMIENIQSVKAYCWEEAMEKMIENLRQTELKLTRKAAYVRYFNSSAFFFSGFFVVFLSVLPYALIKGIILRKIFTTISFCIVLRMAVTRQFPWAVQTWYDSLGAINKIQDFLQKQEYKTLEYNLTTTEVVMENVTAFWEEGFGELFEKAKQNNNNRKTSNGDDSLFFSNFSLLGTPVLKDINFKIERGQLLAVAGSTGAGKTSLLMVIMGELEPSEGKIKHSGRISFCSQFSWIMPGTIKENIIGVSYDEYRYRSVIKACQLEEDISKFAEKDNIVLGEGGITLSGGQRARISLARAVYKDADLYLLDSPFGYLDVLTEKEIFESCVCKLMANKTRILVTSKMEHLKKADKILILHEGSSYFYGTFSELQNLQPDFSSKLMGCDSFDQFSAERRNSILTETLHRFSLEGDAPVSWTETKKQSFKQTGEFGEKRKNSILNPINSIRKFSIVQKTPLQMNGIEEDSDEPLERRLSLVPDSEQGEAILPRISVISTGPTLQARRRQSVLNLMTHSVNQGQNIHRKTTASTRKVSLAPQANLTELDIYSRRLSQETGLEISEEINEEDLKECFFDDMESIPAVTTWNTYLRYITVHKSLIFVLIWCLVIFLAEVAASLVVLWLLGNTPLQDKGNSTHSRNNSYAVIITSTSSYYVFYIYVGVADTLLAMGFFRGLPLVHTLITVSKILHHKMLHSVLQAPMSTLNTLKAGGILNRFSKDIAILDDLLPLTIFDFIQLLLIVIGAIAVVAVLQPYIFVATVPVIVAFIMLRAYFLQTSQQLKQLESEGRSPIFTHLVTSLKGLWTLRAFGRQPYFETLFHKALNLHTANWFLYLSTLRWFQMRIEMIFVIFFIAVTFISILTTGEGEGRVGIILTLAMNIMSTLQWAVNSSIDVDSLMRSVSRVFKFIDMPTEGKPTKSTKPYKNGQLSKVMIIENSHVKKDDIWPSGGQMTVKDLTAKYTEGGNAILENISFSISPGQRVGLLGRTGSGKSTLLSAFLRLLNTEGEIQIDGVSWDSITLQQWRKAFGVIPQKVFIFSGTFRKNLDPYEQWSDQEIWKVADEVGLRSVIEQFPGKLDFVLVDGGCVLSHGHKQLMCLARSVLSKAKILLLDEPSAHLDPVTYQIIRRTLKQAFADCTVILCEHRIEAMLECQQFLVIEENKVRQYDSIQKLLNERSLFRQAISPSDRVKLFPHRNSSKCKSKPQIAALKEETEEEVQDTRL
row,Emax,SMILES
1,> 80%,"Cc1nc2ccc(N(C)C(=O)Cn3nc(-c4cccc(Cl)c4)c4ccc(OC5CCCCC5)cc4c3=O)cc2o1 [Example 26, 2-(4-(3-chlorophenyl)-7-(cyclohexyloxy)-1-oxophthalazin-2(1H)-yl)-N-methyl-N-(2-methylbenzo[d]oxazol-6-yl)acetamide]"
2,30 to 80%,"Cc1nc2ccc(N(C)C(=O)Cn3nc(-c4cccc(F)c4)c4ccccc4c3=O)cc2o1 [Example 2, 2-(4-(3-fluorophenyl)-1-oxophthalazin-2(1H)-yl)-N-methyl-N-(2-methylbenzo[d]oxazol-6-yl)acetamide]"
3,> 80%,"Cc1nc2ccc(N(C(=O)Cn3nc(-c4cccc(Cl)c4)c4ccc(O)cc4c3=O)C3CC3)cc2o1 [Example 15, 2-(4-(3-chlorophenyl)-7-hydroxy-1-oxophthalazin-2(1H)-yl)-N-cyclopropyl-N-(2-methylbenzo[d]oxazol-6-yl)acetamide]"
4,> 80%,"CCN(C(=O)Cn1nc(-c2cccc(Cl)c2)c2ccc(OC)cc2c1=O)c1ccc2nc(C)oc2c1 [Example 9, 2-(4-(3-chlorophenyl)-7-methoxy-1-oxophthalazin-2(1H)-yl)-N-ethyl-N-(2-methylbenzoyl[d]oxazol-6-yl)acetamide]"
5,30 to 80%,"Cc1nc2ccc(N(C(=O)Cn3nc(-c4cccc(F)c4)c4ccc(O)cc4c3=O)C3CC3)cc2o1 [Example 14, N-cyclopropyl-2-(4-(3-fluorophenyl)-7-hydroxy-1-oxophthalazin-2(1H)-yl)-N-(2-methylbenzo[d]oxazol-6-yl)acetamide]"
6,> 80%,"COc1ccc2c(-c3cccc(Cl)c3)nn(CC(=O)N(C)c3ccc4nc(C)oc4c3)c(=O)c2c1 [Example 4, 2-(4-(3-chlorophenyl)-7-methoxy-1-oxophthalazin-2(1H)-yl)-N-methyl-N-(2-methylbenzo[d]oxazol-6-yl)acetamide]"
7,30 to 80%,CCOc1cc2c(=O)n(CC(=O)N(C)c3ccc4nc(C)oc4c3)nc(-c3cccc(F)c3)c2cc1Cl [Example 30]
8,> 80%,"Cc1nc2ccc(N(C)C(=O)Cn3nc(-c4cccc(F)c4)c4ccc(OC5CCCCC5)cc4c3=O)cc2o1 [Example 28, 2-(7-(cyclohexyloxy)-4-(3-fluorophenyl)-1-oxophthalazin-2(1H)-yl)-N-methyl-N-(2-methylbenzo[d]oxazol-6-yl)acetamide]"
9,30 to 80%,"[2H]C([2H])([2H])N(C(=O)Cn1nc(-c2cccc(Cl)c2)c2ccc(OCC3CC3)cc2c1=O)c1ccc2nc(C)oc2c1 [Example 23, 2-(4-(3-chlorophenyl)-7-(cyclopropylmethoxy)-1-oxophthalazin-2(1H)-yl)-N-(methyl-d3)-N-(2-methylbenzo[d]oxazol-6-yl)acetamide]"
10,> 80%,"CCOc1ccc2c(-c3cccc(Cl)c3)nn(CC(=O)N(c3ccc4nc(C)oc4c3)C3CC3)c(=O)c2c1 [Example 18, 2-(4-(3-chlorophenyl)-7-ethoxy-1-oxophthalazin-2(1H)-yl)-N-cyclopropyl-N-(2-methylbenzo[d]oxazol-6-yl)acetamide]"
11,> 80%,"CCOc1cc2c(=O)n(CC(=O)N(C)c3ccc4nc(C)oc4c3)nc(-c3cccc(Cl)c3)c2cc1Cl [Example 31, 2-(6-chloro-4-(3-chlorophenyl)-7-ethoxy-1-oxophthalazin-2(1H)-yl)-N-methyl-N-(2-methylbenzo[d]oxazol-6-yl)acetamide]"
12,30 to 80%,"COc1ccc2c(-c3cccc(F)c3)nn(CC(=O)N(C)c3ccc4nc(C)oc4c3)c(=O)c2c1 [Example 3, 2-(4-(3-fluorophenyl)-7-methoxy-1-oxophthalazin-2(1H)-yl)-N-methyl-N-(2-methylbenzo[d]oxazol-6-yl)acetamide]"
13,> 80%,"[2H]C([2H])(C)N(C(=O)Cn1nc(-c2cccc(Cl)c2)c2ccc(OC)cc2c1=O)c1ccc2nc(C)oc2c1 [Example 7, 2-(4-(3-chlorophenyl)-7-methoxy-1-oxophthalazin-2(1H)-yl)-N-(ethyl-1,1-d2)-N-(2-methylbenzo[d]oxazol-6-yl)acetamide]"
14,30 to 80%,"[2H]C([2H])([2H])N(C(=O)Cn1nc(-c2cccc(Cl)c2)c2ccc(OC(C)C)cc2c1=O)c1ccc2nc(C)oc2c1 [Example 20, 2-(4-(3-chlorophenyl)-7-isopropoxy-1-oxophthalazin-2(1H)-yl)-N-(methyl-d3)-N-(2-methylbenzo[d]oxazol-6-yl)acetamide]"
15,> 80%,"Cc1nc2ccc(N(C)C(=O)Cn3nc(-c4cccc(Cl)c4)c4ccc(OC5CCOCC5)cc4c3=O)cc2o1 [Example 29, 2-(4-(3-chlorophenyl)-1-oxo-7-((tetrahydro-2H-pyran-4-yl)oxy)phthalazin-2(1H)-yl)-N-methyl-N-(2-methylbenzo[d]oxazol-6-yl)acetamide]"
16,> 80%,"Cc1nc2ccc(N(C)C(=O)Cn3nc(-c4cccc(F)c4)c4ccc(O)cc4c3=O)cc2o1 [Example 13, 2-(4-(3-fluorophenyl)-7-hydroxy-1-oxophthalazin-2(1H)-yl)-N-methyl-N-(2-methylbenzo[d]oxazol-6-yl)acetamide]"
17,> 80%,"[2H]C([2H])([2H])N(C(=O)Cn1nc(-c2cccc(F)c2)c2ccc(OCC)cc2c1=O)c1ccc2nc(C)oc2c1 [Example 22, 2-(7-ethoxy-4-(3-fluorophenyl)-1-oxophthalazin-2(1H)-yl)-N-(methyl-d3)-N-(2-methylbenzo[d]oxazol-6-yl)acetamide]"
18,> 80%,"CCN(C(=O)Cn1nc(-c2cccc(F)c2)c2ccc(OC)cc2c1=O)c1ccc2nc(C)oc2c1 [Example 8, N-ethyl-2-(4-(3-fluorophenyl)-7-methoxy-1-oxophthalazin-2(1H)-yl)-N-(2-methylbenzo[d]oxazol-6-yl)acetamide]"
19,> 80%,"Cc1nc2ccc(N(C)C(=O)Cn3nc(-c4cccc(Cl)c4)c4ccc(OCC5CC5)cc4c3=O)cc2o1 [Example 24, 2-(4-(3-chlorophenyl)-7-(cyclopropylmethoxy)-1-oxophthalazin-2(1H)-yl)-N-methyl-N-(2-methylbenzo[d]oxazol-6-yl)acetamide]"
20,> 80%,"COc1ccc2c(-c3cccc(F)c3)nn(CC(=O)N(c3ccc4nc(C)oc4c3)C3CC3)c(=O)c2c1 [Example 12, N-cyclopropyl-2-(4-(3-fluorophenyl)-7-methoxy-1-oxophthalazin-2(1H)-yl)-N-(2-methylbenzo[d]oxazol-6-yl)acetamide]"
21,> 80%,"COc1ccc2c(-c3cccc(Cl)c3)nn(CC(=O)N(c3ccc4nc(C)oc4c3)C3CC3)c(=O)c2c1 [Example 5, 2-(4-(3-chlorophenyl)-7-methoxy-1-oxophthalazin-2(1H)-yl)-N-cyclopropyl-N-(2-methylbenzo[d]oxazol-6-yl)acetamide]"
22,> 80%,"Cc1nc2ccc(N(C)C(=O)Cn3nc(-c4cccc(Cl)c4)c4ccc(OC(C)C)cc4c3=O)cc2o1 [Example 25, 2-(4-(3-chlorophenyl)-7-isopropoxy-1-oxophthalazin-2(1H)-yl)-N-methyl-N-(2-methylbenzo[d]oxazol-6-yl)acetamide]"
23,> 80%,"Cc1nc2ccc(N(C)C(=O)Cn3nc(-c4cccc(F)c4)c4ccc(OC5CCOCC5)cc4c3=O)cc2o1 [Example 27, 2-(4-(3-fluorophenyl)-1-oxo-7-((tetrahydro-2H-pyran-4-yl)oxy)phthalazin-2(1H)-yl)-N-methyl-N-(2-methylbenzo[d]oxazol-6-yl)acetamide]"
24,30 to 80%,"COc1cc2c(=O)n(CC(=O)N(C)c3ccc4nc(C)oc4c3)nc(-c3cccc(F)c3)c2cc1Cl [Example 10, 2-(6-chloro-4-(3-fluorophenyl)-7-methoxy-1-oxophthalazin-2(1H)-yl)-N-methyl-N-(2-methylbenzo[d]oxazol-6-yl)acetamide]"
